Columns and labels:
Format in all cases: physicochemical
[1] = Foam test based upon ASTM D 1173-53; conditions: 0.1 wt % solution
Method: The foaming properties of 0.1 wt % solutions of the reductive alkylation products of the products of this invention were examined using a procedure based upon ASTM D 1173-53. In this test, a 0.1 wt % solution of the surfactant is added from an elevated foam pipette to a foam receiver containing the same solution. The foam height is measured at the completion of the addition (“Initial Foam Height”) and the time required for the foam to dissipate is recorded (“Time to 0 Foam”). This test provides a comparison between the foaming characteristics of various surfactant solutions. In general, in coatings, inks, and agricultural formulations, foam is undesirable because is complicates handling and can lead to coating and print defects, and to inefficient application of agricultural materials.

[2] = Solubility in water
[3] = Dynamic surface tension of aqueous solutions, maximum bubble pressure method
From the text: where n is 2-6, preferably 2-4; m is 0-4, preferably 0-2; and p and q are 2-6, preferably 2 or 3; and R and R′ independently are an alkyl group comprising 5 to 18 carbons, preferably 5 to 8 carbons which is branched or in which the point of attachment to nitrogen is on a nonterminal carbon, for the reduction of equilibrium and dynamic surface tension in water-based compositions containing an organic compound, particularly coating, ink, and agricultural compositions containing organic compounds such as polymeric resins, herbicides, pesticides or plant growth modifying agents. […] The maximum-bubble-pressure method of measuring surface tension is described in Langmuir 1986, 2, 428-432, which is incorporated by reference.
Dynamic surface tension data were obtained for aqueous solutions of the reductive alkylation product of the dialkylated aminoethylether of Example 1 using the maximum bubble pressure method at bubble rates from 0.1 bubbles/second (b/s) to 20 b/s. […] In practical terms, high bubble rates correspond to high printing speeds in lithographic printing, high spray or roller velocities in coating applications, and rapid application rates for agricultural products.

Initial Foam Height [1] [cm] | Time to 0 Foam [1] [s] | Dynamic Surface Tension ([3]; 0.1 wt % in water, 0.1 b/s) [dyne/cm] | Dynamic Surface Tension ([3]; 0.1 wt % in water, 1 b/s) [dyne/cm] | Dynamic Surface Tension ([3]; 0.1 wt % in water, 6 b/s) [dyne/cm] | Dynamic Surface Tension ([3]; 0.1 wt % in water, 15 b/s) [dyne/cm] | Dynamic Surface Tension ([3]; 0.1 wt % in water, 20 b/s) [dyne/cm] | Dynamic Surface Tension ([3]; 0.2 wt % in water, 0.1 b/s) [dyne/cm] | Dynamic Surface Tension ([3]; 0.2 wt % in water, 1 b/s) [dyne/cm] | Dynamic Surface Tension ([3]; 0.2 wt % in water, 6 b/s) [dyne/cm] | Dynamic Surface Tension ([3]; 0.2 wt % in water, 15 b/s) [dyne/cm] | Dynamic Surface Tension ([3]; 0.2 wt % in water, 20 b/s) [dyne/cm] | Dynamic Surface Tension ([3]; 0.5 wt % in water, 0.1 b/s) [dyne/cm] | Dynamic Surface Tension ([3]; 0.5 wt % in water, 1 b/s) [dyne/cm] | Dynamic Surface Tension ([3]; 0.5 wt % in water, 6 b/s) [dyne/cm] | Dynamic Surface Tension ([3]; 0.5 wt % in water, 15 b/s) [dyne/cm] | Dynamic Surface Tension ([3]; 0.5 wt % in water, 20 b/s) [dyne/cm] | Dynamic Surface Tension ([3]; 0.15 wt % in water, 0.1 b/s) [dyne/cm] | Dynamic Surface Tension ([3]; 0.15 wt % in water, 1 b/s) [dyne/cm] | Dynamic Surface Tension ([3]; 0.15 wt % in water, 6 b/s) [dyne/cm] | Structure (SMILES) | further results
2.6 | 8 | 35.5 | 36.0 | 37.2 | 38.7 | 39.2 | 31.6 | 32.0 | 32.9 | 33.8 | 34.1 | 29.7 | 29.8 | 30.1 | 30.8 | 31.0 |  |  |  | CC(C)CC(C)NCCCOCCOCCCNC(C)CC(C)C (stereo not shown) [BAPE/MIBK2] | solubility (in words) [2]: relatively high solubility
 |  | 30.3 | 30.8 | 31.8 | 33.4 | 34.1 | 26.7 | 26.9 | 27.4 | 28.8 | 29.3 |  |  |  |  |  | 27.6 | 27.9 | 28.7 | CC(C)CC(C)NCCOCCNC(C)CC(C)C (stereo not shown) [AEE/MIBK2] | solubility limit [2]: about 0.2 wt %; Dynamic Surface Tension ([3]; 0.03 wt % in water, 0.1 b/s): 37.9 dyne/cm; Dynamic Surface Tension ([3]; 0.03 wt % in water, 1 b/s): 39.0 dyne/cm; Dynamic Surface Tension ([3]; 0.03 wt % in water, 6 b/s): 42.8 dyne/cm; Dynamic Surface Tension ([3]; 0.03 wt % in water, 15 b/s): 47.9 dyne/cm; Dynamic Surface Tension ([3]; 0.03 wt % in water, 20 b/s): 48.2 dyne/cm; Dynamic Surface Tension ([3]; 0.05 wt % in water, 0.1 b/s): 34.7 dyne/cm; Dynamic Surface Tension ([3]; 0.05 wt % in water, 1 b/s): 35.4 dyne/cm; Dynamic Surface Tension ([3]; 0.05 wt % in water, 6 b/s): 37.6 dyne/cm; Dynamic Surface Tension ([3]; 0.05 wt % in water, 15 b/s): 40.9 dyne/cm; Dynamic Surface Tension ([3]; 0.05 wt % in water, 20 b/s): 41.9 dyne/cm; Dynamic Surface Tension ([3]; 0.07 wt % in water, 0.1 b/s): 32.4 dyne/cm; Dynamic Surface Tension ([3]; 0.07 wt % in water, 1 b/s): 33.0 dyne/cm; Dynamic Surface Tension ([3]; 0.07 wt % in water, 6 b/s): 34.5 dyne/cm; Dynamic Surface Tension ([3]; 0.07 wt % in water, 15 b/s): 36.8 dyne/cm; Dynamic Surface Tension ([3]; 0.07 wt % in water, 20 b/s): 37.7 dyne/cm; Dynamic Surface Tension ([3]; 0.15 wt % in water, 15 b/s): 30.1 dyne/cm; Dynamic Surface Tension ([3]; 0.15 wt % in water, 20 b/s): 30.6 dyne/cm
3.1 | 5 | 39.2 | 39.7 | 40.8 | 42.0 | 42.2 |  |  |  |  |  | 30.6 | 30.7 | 31.0 | 31.8 | 32.2 |  |  |  | CC(C)CC(C)NCCCOCCOCCOCCCNC(C)CC(C)C (stereo not shown) [BAPEE/MIBK2] | 
1.0 | 2 | 30.8 | 31.3 | 32.6 | 34.4 | 34.9 |  |  |  |  |  |  |  |  |  |  | 29.3 | 29.9 | 30.1 | CC(C)CC(C)NCCCOCCCNC(C)CC(C)C (stereo not shown) [APE/MIBK2] | Dynamic Surface Tension ([3]; 0.15 wt % in water, 15 b/s): 32.9 dyne/cm; Dynamic Surface Tension ([3]; 0.15 wt % in water, 20 b/s): 33.3 dyne/cm
